# Results: patent US20180243190A1, “ACTIVATORS OF NRF2-DEPENDENT PHOTOPROTECTION AND RELATED USES THEREOF” (THE ARIZONA BOARD OF REGENTS ON BEHALF OF THE UNIVERSITY OF …, priority 2015, published 2018)
# Assays:
# [1] = target: T1, KEAP1 wild type (KEAP1-WT) (Homo sapiens, UniProt Q14145); type: cell-based; settings: SF 5 μM, As 5 μM, bixin 40 μM; 16 h
# T1 construct: expressed in transfected cells; host or cells: HaCaT human keratinocytes
# From the text: (§1) Since it has been shown previously that NRF2 activation by canonical inducers (including SF and tBHQ) depends on C (Cys)-151, a critical cysteine residue in KEAP1, the mechanistic involvement of KEAP1-C151 bixin-based NRF2 activation was examined. HaCaT cells were cotransfected with expression vectors for either KEAP1 wild type (KEAP1-WT) or a mutant KEAP1 (KEAP1-C151S; Cys-151 mutated to serine) along with ARE-firefly luciferase and Renilla luciferase reporters to assess NRF2 transcriptional activity (FIG. 3G). After exposure to SF (5 μM), As (sodium arsenite; 5 μM), or bixin (40 μM; all 16 h), NRF2 transcriptional activity was enhanced by all treatments in KEAP1-WT cells, whereas NRF2 activation by SF or bixin was abolished in KEAP1-C151S cells.
# (§2) Transfection of cDNA was performed using Lipofectamine 3000 (Invitrogen) according to the manufacturer's instructions. Activation of NRF2 transcriptional activity was performed as previously published. Briefly, HaCaT cells were cotransfected with expression vectors for either KEAP1 wild type (KEAP1-WT) or KEAP1 with a mutation that generates a protein that contains a serine residue instead of a cysteine (KEAP1-C151S), along with NQO1-ARE firefly luciferase and Renilla luciferase reporters. At 24 h post-transfection, cells were left untreated or treated with SF (5 μM), As (5 μM), or bixin (40 μM) for 16 h. The cells were then lysed for analysis of the reporter gene activity using the Promega dual-luciferase reporter gene assay system.
# KEAP1-C151S = target: T2, KEAP1-C151S (Homo sapiens, UniProt Q14145, C151S); type: cell-based; settings: SF 5 μM, As 5 μM, bixin 40 μM; 16 h
# T2 construct: expressed in transfected cells; host or cells: HaCaT human keratinocytes
# From the text: as §1, §2
# [2] = test system: NRF2, KEAP1, GCLM, AKR1C1 mRNA; experiment: Quantitative real-time RT-PCR in HaCaT cells; type: cell-based, human; settings: 40 μM, 4 h and 16 h
# From the text: Total RNA was extracted from HaCaT cells and mouse skin tissues using TRIzol (Invitrogen). Equal amounts of mRNA were used to generate cDNA using the M-MLV Reverse Transcriptase synthesis kit according to the manufacturer's instructions (Promega). RT-PCR and primer sequences of NRF2, KEAP1, GCLM, AKR1C1 and GAPDH were described previously to evaluate mRNA expression using the LightCycler 480 system (Roche). Quantification of cDNA amount for mouse Nrf2, Keap1, Gclm, and Akr1c1 in each skin tissue sample was performed using the KAPA SYBR FAST qPCR Kit (Kapa Biosystems).
# SKH-1 mice skin = experiment: Solar UV photodamage model; type: in vivo
# Experimental: Next, the feasibility of bixin-induced cutaneous protection was studied in a solar UV photodamage model. Nrf2^+/+ and Nrf2^−/− mice were i.p. injected with either corn oil (carrier control) or bixin (200 mg/kg) 48 h before solar UV exposure (240 mJ/cm^2 UVB; 4.4 J/cm^2 UVA). 24 h after UV exposure back skin tissue was then collected followed by immunohistochemical (IHC) analysis. […] Moreover, UV exposure alone activated the NRF2 response in murine skin, effects not detectable in Nrf2^−/− mice (FIG. 5).
# Irradiation with solar UV occurred as described before. A KW large area light source solar simulator, model 91293, from Oriel Corporation (Stratford, Conn.) was used, equipped with a 1000 W Xenon arc lamp power supply, model 68920, and a VIS-IR bandpass blocking filter combined with an atmospheric attenuation filter (output 290-400 nm plus residual 650-800 nm). At 345 mm from the source, the UV dose was 4.4 J/cm^2 UVA+240 mJ/cm^2 UVB radiation.
# Nrf2^+/+ and Nrf2^−/− SKH-I mice were obtained by breeding Nrf2 heterozygous mice generated by back-crossing Nrf2^−/− C57BL/6 mice onto the SKH-1 hairless mouse genetic background for at least six generations (JAX® Mice, The Jackson Laboratory). All animals received water and food ad libitum and were handled according to the Guide for the Care and Use of Laboratory Animals; the protocols were approved by the University of Arizona Institutional Animal Care and Use Committee. Eight-week-old Nrf2^+/+ and Nrf2^−/− mice were randomly allocated into four groups (n=6): (i) control (corn oil); (ii) bixin (200 mg/kg, dissolved in corn oil); (iii) UV; (iv) bixin+UV. Bixin was administered through intraperitoneal (i.p.) injection 48 h before UV exposure.
# 24 h after UV exposure, the mice were euthanized and back skin was collected and divided into two parts: one part was frozen in liquid nitrogen for total RNA extraction and protein analysis; the other part was fixed in 10% buffered formalin and embedded in paraffin for histological and immunohistochemical analyses. Tissue sections (4 μm) were baked and deparaffinized. Hematoxylin and eosin (H&E) staining was performed for pathological examination. Antigen retrieval was carried out by boiling the slides with retrieval solution (citric acid monohydrate 2.1 g/L in H2O pH=6.0) three times for 5 min [43]. Tissue sections were then exposed to 3.5 M HCl for 15 min at room temperature and washed with PBS. Subsequently, tissue sections were treated with 0.3% […] to quench endogenous peroxidase activity. Tissue sections were incubated with 5% normal goat serum for 30 min followed by 2 h incubation with primary antibodies at 1:100 dilution at room temperature. Staining was performed using the EnVision+System-HRP (DAB) kit (Dako) according to the manufacturer's instructions.
# An in situ cell death detection kit (Roche) was used for detection of apoptotic cell death in skin sections according to the manufacturer's instructions. Briefly, tissue sections were pretreated with proteinase K (20 μg/ml) in 10 mM Tris/HCl (pH 7.8) at 37° C. for 30 min. After washing three times with PBS, tissue sections were incubated with TUNEL reaction mixture for 1 h at 37° C. in the dark. Tissue sections were then stained with Hoechst, and analyzed using a fluorescence microscope (Zeiss Observer.Zi microscope; slidebook computer program; excitation wavelength: 450-500 nm; detection wavelength: 515-565 nm). Hoechst stain was visualized under UV light.
# [3] = 200 mg/kg i.p. 48 h before solar UV, effect confined to Nrf2+/+ mice
# T2 sequence (Q14145 whole entry C151S): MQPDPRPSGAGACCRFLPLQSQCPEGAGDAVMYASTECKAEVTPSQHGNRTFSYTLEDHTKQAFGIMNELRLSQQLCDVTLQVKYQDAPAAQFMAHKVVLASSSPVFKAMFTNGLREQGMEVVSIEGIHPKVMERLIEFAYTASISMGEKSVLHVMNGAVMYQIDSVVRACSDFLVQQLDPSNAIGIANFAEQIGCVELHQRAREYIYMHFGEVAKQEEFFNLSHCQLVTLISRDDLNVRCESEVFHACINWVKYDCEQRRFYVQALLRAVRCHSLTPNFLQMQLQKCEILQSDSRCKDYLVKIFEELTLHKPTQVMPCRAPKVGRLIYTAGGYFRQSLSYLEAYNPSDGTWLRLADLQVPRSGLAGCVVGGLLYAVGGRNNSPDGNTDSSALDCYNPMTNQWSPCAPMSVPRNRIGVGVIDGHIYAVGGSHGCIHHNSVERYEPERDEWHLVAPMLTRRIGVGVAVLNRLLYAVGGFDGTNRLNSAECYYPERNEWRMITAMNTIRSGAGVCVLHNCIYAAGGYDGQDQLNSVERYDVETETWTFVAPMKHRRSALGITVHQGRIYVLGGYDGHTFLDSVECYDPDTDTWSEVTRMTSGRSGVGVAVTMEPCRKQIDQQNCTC
# T1 sequence (Q14145 whole entry, species assumed): as the sequence (Q14145 whole entry C151S) above, with S151C counted along it
smiles,measurement,setting,value
COC(=O)/C=C/C(C)=C\C=C\C(C)=C\C=C\C=C(C)\C=C\C=C(C)\C=C\C(=O)O [bixin],NRF2 transcriptional activity in KEAP1-WT cells,[1],enhanced
same,NRF2 activation in KEAP1-C151S cells,KEAP1-C151S,abolished
same,NRF2 or KEAP1 mRNA levels,[2],without affecting
same,"NRF2 target genes at the mRNA level (GCLM, AKR1C1)",[2],pronounced upregulation
same,UV-induced apoptosis (TUNEL-positive cells),SKH-1 mice skin; [3],suppressed
same,UV-induced epidermal thickening,SKH-1 mice skin; [3],suppressed
same,cyclobutane pyrimidine dimer (CPD)-lesions,"SKH-1 mice skin; Nrf2+/+ and Nrf2−/− mice, 200 mg/kg i.p.",not antagonized
same,UV-induced epidermal expression of MMP9 (IHC),"SKH-1 mice skin; Nrf2+/+ mice only, 200 mg/kg i.p.",significantly antagonized
same,UV-elicited keratinocyte hyperproliferation (Ki67 IHC),"SKH-1 mice skin; Nrf2+/+ mice, 200 mg/kg i.p.",suppression
same,UV-enhanced 8-oxo-dG staining (IHC),"SKH-1 mice skin; Nrf2+/+ mice, 200 mg/kg i.p.",suppressed
same,UV-induced p-p65 accumulation in the skin,"SKH-1 mice skin; Nrf2+/+ mice, 200 mg/kg i.p.",decreased
same,UV-enhanced 8-oxo-dG staining (IHC),"SKH-1 mice skin; Nrf2−/− mice, 200 mg/kg i.p.",not Nrf2^−/− mice
same,UV-induced p-p65 accumulation in the skin,"SKH-1 mice skin; Nrf2−/− mice, 200 mg/kg i.p.",minimal effects
same,"UV-induced NF-κB target gene expression (IL6, TNFα, MMP9) at the mRNA level","SKH-1 mice skin; observed only in Nrf2+/+ mice, 200 mg/kg i.p.",attenuation
